#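 1) Cells in 96-well plates. 2) Compound, 48 h, 5 concentrations. 3) Linear interpolation between surrounding doses. 4) Unreached endpoint = highest concentration. GI50 = concentration required for 50% inhibition of growth.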 Activity calls are given as the source filed them. Cut-off read from the data, not from the text of the source: active = GI50 up to about 1.1 µM and inactive = higher.
# Legend:
# Test in all cases: growth of human tumour cells (NCI), 48 h
# SK-MEL-28 = test system: SK-MEL-28
# UACC-257 = test system: UACC-257
# OVCAR-4 = test system: OVCAR-4
# HCT-15 = test system: HCT-15
# SW-620 = test system: SW-620
# U-251 = test system: U-251
# SK-MEL-2 = test system: SK-MEL-2
# A549 = test system: A549
# SNB-75 = test system: SNB-75
# Hs-578T = test system: Hs-578T
# COLO 205 = test system: COLO 205
# ACHN = test system: ACHN
# SF-539 = test system: SF-539
# SK-OV-3 = test system: SK-OV-3
# CAKI-1 = test system: CAKI-1
# NCI-H522 = test system: NCI-H522
# KM12 = test system: KM12
# NCI-H23 = test system: NCI-H23
# PC-3 = test system: PC-3
# SF-268 = test system: SF-268
# MDA-MB-435 = test system: MDA-MB-435
# TK-10 = test system: TK-10
# MDA-MB-231 = test system: MDA-MB-231
# K562 = test system: K562
# SN12C = test system: SN12C
# OVCAR-3 = test system: OVCAR-3
# Malme-3M = test system: Malme-3M
# UACC-62 = test system: UACC-62
# RPMI-8226 = test system: RPMI-8226
# OVCAR-5 = test system: OVCAR-5
# EKVX = test system: EKVX
# MDA-N = test system: MDA-N
# DU-145 = test system: DU-145
# LOX IMVI = test system: LOX IMVI
# UO-31 = test system: UO-31
# NCI/ADR-RES = test system: NCI/ADR-RES
# BT-549 = test system: BT-549
# A498 = test system: A498
# HOP-62 = test system: HOP-62
# CCRF-CEM = test system: CCRF-CEM
# SF-295 = test system: SF-295
# SNB-19 = test system: SNB-19
# SR = test system: SR
# HL-60 = test system: HL-60
# MOLT-4 = test system: MOLT-4
# SK-MEL-5 = test system: SK-MEL-5
# IGROV-1 = test system: IGROV-1
# HCT-116 = test system: HCT-116
# NCI-H226 = test system: NCI-H226
# RXF 393 = test system: RXF 393
# MCF7 = test system: MCF7
# T47D = test system: T47D
# M14 = test system: M14
# HOP-92 = test system: HOP-92
# HT-29 = test system: HT-29
# OVCAR-8 = test system: OVCAR-8
# HCC 2998 = test system: HCC 2998
# 786-0 = test system: 786-0
# NCI-H460 = test system: NCI-H460
smiles,measurement,setting,value
CC(=O)OC(C)c1cc2c(s1)C(=O)c1ccsc1C2=O (centres undefined),GI50,SK-MEL-28,172 nM (active)
same,GI50,UACC-257,28 nM (active)
same,GI50,OVCAR-4,664 nM (active)
same,GI50,HCT-15,124 nM
same,GI50,SW-620,324 nM (active)
same,GI50,U-251,165 nM (active)
same,GI50,SK-MEL-2,483 nM (active)
same,GI50,A549,1370 nM (inactive)
same,GI50,SNB-75,148 nM (active)
same,GI50,Hs-578T,154 nM (active)
same,GI50,COLO 205,776 nM (active)
same,GI50,ACHN,158 nM (active)
same,GI50,SF-539,52.8 nM (active)
same,GI50,SK-OV-3,2070 nM (inactive)
same,GI50,CAKI-1,895 nM (active)
same,GI50,NCI-H522,149 nM (active)
same,GI50,KM12,169 nM (active)
same,GI50,NCI-H23,57.5 nM (active)
same,GI50,PC-3,41 nM (active)
same,GI50,SF-268,213 nM (active)
same,GI50,MDA-MB-435,16.8 nM (active)
same,GI50,TK-10,1220 nM (inactive)
same,GI50,MDA-MB-231,209 nM (active)
same,GI50,K562,131 nM (active)
same,GI50,SN12C,156 nM (active)
same,GI50,OVCAR-3,40.5 nM (active)
same,GI50,Malme-3M,102 nM (active)
same,GI50,UACC-62,81.1 nM (active)
same,GI50,RPMI-8226,82.6 nM (active)
same,GI50,OVCAR-5,458 nM (active)
same,GI50,EKVX,773 nM (active)
same,GI50,MDA-N,20.6 nM (active)
same,GI50,DU-145,118 nM (active)
same,GI50,LOX IMVI,11.7 nM (active)
same,GI50,UO-31,184 nM (active)
same,GI50,NCI/ADR-RES,271 nM (active)
same,GI50,BT-549,167 nM (active)
same,GI50,A498,1820 nM (inactive)
same,GI50,HOP-62,137 nM (active)
same,GI50,CCRF-CEM,204 nM (active)
same,GI50,SF-295,113 nM (active)
same,GI50,SNB-19,166 nM (active)
same,GI50,SR,74.8 nM (active)
same,GI50,HL-60,12.2 nM (active)
same,GI50,MOLT-4,262 nM (active)
same,GI50,SK-MEL-5,27.3 nM (active)
same,GI50,IGROV-1,659 nM (active)
same,GI50,HCT-116,226 nM (active)
same,GI50,NCI-H226,1610 nM (inactive)
same,GI50,RXF 393,206 nM (active)
same,GI50,MCF7,51.3 nM (active)
same,GI50,T47D,437 nM (active)
same,GI50,M14,129 nM (active)
same,GI50,HOP-92,372 nM (active)
same,GI50,HT-29,170 nM (active)
same,GI50,OVCAR-8,228 nM (active)
same,GI50,HCC 2998,451 nM (active)
same,GI50,786-0,286 nM (active)
N=C(N)NCCCC(NC(=O)OCCCCCn1ccc(N)nc1=O)C(=O)O (centres undefined),GI50,SK-MEL-28,> 100000 nM (inactive)
same,GI50,UACC-257,> 100000 nM (inactive)
same,GI50,OVCAR-4,> 100000 nM (inactive)
same,GI50,HCT-15,> 100000 nM
same,GI50,SW-620,> 100000 nM (inactive)
same,GI50,U-251,> 100000 nM (inactive)
same,GI50,SK-MEL-2,> 100000 nM (inactive)
same,GI50,A549,> 100000 nM (inactive)
same,GI50,SNB-75,> 100000 nM (inactive)
same,GI50,Hs-578T,> 100000 nM (inactive)
same,GI50,COLO 205,> 100000 nM (inactive)
same,GI50,ACHN,> 100000 nM (inactive)
same,GI50,SF-539,> 100000 nM (inactive)
same,GI50,SK-OV-3,> 100000 nM (inactive)
same,GI50,CAKI-1,> 100000 nM (inactive)
same,GI50,KM12,> 100000 nM (inactive)
same,GI50,NCI-H23,> 100000 nM (inactive)
same,GI50,PC-3,> 100000 nM (inactive)
same,GI50,SF-268,> 100000 nM (inactive)
same,GI50,MDA-MB-435,> 100000 nM (inactive)
same,GI50,TK-10,> 100000 nM (inactive)
same,GI50,MDA-MB-231,> 100000 nM (inactive)
same,GI50,K562,> 100000 nM (inactive)
same,GI50,SN12C,> 100000 nM (inactive)
same,GI50,OVCAR-3,> 100000 nM (inactive)
same,GI50,UACC-62,> 100000 nM (inactive)
same,GI50,RPMI-8226,> 100000 nM (inactive)
same,GI50,OVCAR-5,> 100000 nM (inactive)
same,GI50,EKVX,> 100000 nM (inactive)
same,GI50,MDA-N,> 100000 nM (inactive)
same,GI50,DU-145,> 100000 nM (inactive)
same,GI50,LOX IMVI,> 100000 nM (inactive)
same,GI50,UO-31,> 100000 nM (inactive)
same,GI50,NCI/ADR-RES,> 100000 nM (inactive)
same,GI50,BT-549,> 100000 nM (inactive)
same,GI50,A498,> 100000 nM (inactive)
same,GI50,HOP-62,> 100000 nM (inactive)
same,GI50,CCRF-CEM,> 100000 nM (inactive)
same,GI50,SF-295,> 100000 nM (inactive)
same,GI50,NCI-H460,> 100000 nM (inactive)
same,GI50,SNB-19,> 100000 nM (inactive)
same,GI50,SR,> 100000 nM (inactive)
same,GI50,HL-60,> 100000 nM (inactive)
same,GI50,MOLT-4,> 100000 nM (inactive)
same,GI50,IGROV-1,> 100000 nM (inactive)
same,GI50,HCT-116,> 100000 nM (inactive)
same,GI50,NCI-H226,> 100000 nM (inactive)
same,GI50,RXF 393,> 100000 nM (inactive)
same,GI50,MCF7,> 100000 nM (inactive)
same,GI50,T47D,> 100000 nM (inactive)
same,GI50,M14,> 100000 nM (inactive)
same,GI50,HOP-92,> 100000 nM (inactive)
same,GI50,HT-29,> 100000 nM (inactive)
same,GI50,OVCAR-8,> 100000 nM (inactive)
same,GI50,HCC 2998,> 100000 nM (inactive)
same,GI50,786-0,> 100000 nM (inactive)

# — ChEMBL document CHEMBL1201862, “PubChem BioAssay data set” (2004)
